# Values quoted from earlier work in patent US20210077417A1, “Methods and Compositions Particularly for Treatment of Attention Deficit Disorder” (Purdue Pharma L.P., priority 2018, published 2021).
# Structures can show the parent of a compound that is named as a salt. Where two headings read alike, the source gives them in different places.
# Tests used:
# patients with ADHD = conditions: reported
molecule,measurement,setting,value
"COC(=O)C(c1ccccc1)C1CCCCN1 (racemic) [Methylphenidate, dl-threo-methyl-2-phenyl-2-(2-piperidyl)acetate]",Stability,acidic solutions,relatively stable
same,Degradation amount (hydrolysis of the methyl ester),as the pH increases to 8.9,up to 100%
same,Stability,basic solutions,degraded extensively
COC(=O)C(c1ccccc1)C1CCCCN1 (stereo not shown) [Methylphenidate hydrochloride],Solubility,in acetone,slightly soluble
same,Solubility,in alcohol,soluble
same,Solubility,in chloroform,slightly soluble
same,Solubility,in methanol,freely soluble
same,Solubility,in water,freely soluble
lisdexamfetamine dimesylate,Duration of action,patients with ADHD,up to 14 hours
same,Onset of action,patients with ADHD,does not have a rapid onset of action
